Patent publication US20250236608A1, “EGFR INHIBITORS” (Blueprint Medicines Corporation, priority 2022, published 2025)
Where a name gives a salt, the structure may show the parent alone.

Experiments:
[1] = molecular target: EGFR L858R (Homo sapiens (Human), UniProt P00533, L858R); assay: Biochemical EGFR inhibition assay, EGFR L858R; conditions: Caliper mobility shift; 1.0 mM ATP or ATP Km; read-out: Enz EGFR_L858R IC50
[2] = molecular target: EGFR (d746-750) (Homo sapiens (Human), UniProt P00533, DEL746-750); assay: Biochemical EGFR inhibition assay, EGFR (d746-750); conditions: Caliper mobility shift; 1.0 mM ATP or ATP Km; read-out: Enz EGFR_Exon19-del746-750 IC50
Chain of EGFR (d746-750) (P00533 other isoform, or with tags, fused parts or gaps del 1-694/del 746-750 limits assumed): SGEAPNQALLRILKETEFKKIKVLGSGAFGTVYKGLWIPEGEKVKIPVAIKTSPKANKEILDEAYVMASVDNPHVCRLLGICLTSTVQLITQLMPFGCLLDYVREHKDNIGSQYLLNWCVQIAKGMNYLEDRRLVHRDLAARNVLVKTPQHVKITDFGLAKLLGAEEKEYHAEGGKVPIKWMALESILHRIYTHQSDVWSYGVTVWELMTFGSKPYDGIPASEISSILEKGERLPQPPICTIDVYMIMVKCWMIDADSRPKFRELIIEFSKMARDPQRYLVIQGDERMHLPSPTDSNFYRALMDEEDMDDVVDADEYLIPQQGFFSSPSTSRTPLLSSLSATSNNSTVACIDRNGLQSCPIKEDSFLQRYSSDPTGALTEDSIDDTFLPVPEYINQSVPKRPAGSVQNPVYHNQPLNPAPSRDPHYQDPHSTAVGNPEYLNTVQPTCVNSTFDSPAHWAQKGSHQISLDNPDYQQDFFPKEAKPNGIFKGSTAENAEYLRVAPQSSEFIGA

[3] = molecular target: pEGFR (Tyr1068) in PC-9 cells (Ex19Del) (Homo sapiens (Human), UniProt P00533, DEL746-750); assay: PC-9 pEGFR AlphaLISA assay; type: cell-based; conditions: 4 hours incubation, p-EGFR (Tyr1068) AlphaLISA, read-out: Ext pEGFR_PC-9 Ex19Del IC50
Chain of pEGFR (Tyr1068) in PC-9 cells (Ex19Del) (P00533 other isoform, or with tags, fused parts or gaps del 746-750): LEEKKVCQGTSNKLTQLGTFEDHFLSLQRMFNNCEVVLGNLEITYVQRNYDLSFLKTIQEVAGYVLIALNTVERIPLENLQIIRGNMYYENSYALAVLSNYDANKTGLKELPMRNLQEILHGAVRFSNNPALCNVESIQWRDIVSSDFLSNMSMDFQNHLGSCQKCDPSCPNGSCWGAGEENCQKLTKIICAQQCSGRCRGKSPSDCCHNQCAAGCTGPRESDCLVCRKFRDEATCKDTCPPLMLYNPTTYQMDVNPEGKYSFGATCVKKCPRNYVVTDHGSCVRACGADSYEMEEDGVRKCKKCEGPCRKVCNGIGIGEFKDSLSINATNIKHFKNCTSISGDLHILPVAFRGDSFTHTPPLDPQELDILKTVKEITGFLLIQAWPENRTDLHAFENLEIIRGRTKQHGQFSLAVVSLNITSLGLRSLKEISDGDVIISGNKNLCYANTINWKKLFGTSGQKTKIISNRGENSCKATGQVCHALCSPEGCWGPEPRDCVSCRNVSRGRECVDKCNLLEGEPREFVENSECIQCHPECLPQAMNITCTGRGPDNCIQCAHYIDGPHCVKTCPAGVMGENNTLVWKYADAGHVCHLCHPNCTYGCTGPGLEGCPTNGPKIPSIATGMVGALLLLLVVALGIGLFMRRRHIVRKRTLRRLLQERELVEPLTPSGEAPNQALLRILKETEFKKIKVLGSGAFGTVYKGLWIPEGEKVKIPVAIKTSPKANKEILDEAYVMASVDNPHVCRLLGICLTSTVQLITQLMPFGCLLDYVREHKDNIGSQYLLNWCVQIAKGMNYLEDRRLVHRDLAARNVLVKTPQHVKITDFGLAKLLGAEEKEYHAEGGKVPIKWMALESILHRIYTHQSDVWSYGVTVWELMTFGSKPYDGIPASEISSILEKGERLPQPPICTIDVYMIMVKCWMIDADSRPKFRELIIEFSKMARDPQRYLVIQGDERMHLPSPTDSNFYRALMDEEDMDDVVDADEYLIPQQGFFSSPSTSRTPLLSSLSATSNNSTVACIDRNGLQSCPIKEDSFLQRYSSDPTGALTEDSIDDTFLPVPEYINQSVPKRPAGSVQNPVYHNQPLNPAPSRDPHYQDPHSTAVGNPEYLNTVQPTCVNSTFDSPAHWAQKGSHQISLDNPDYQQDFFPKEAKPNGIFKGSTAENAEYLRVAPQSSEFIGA
In short: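 Phospho-EGFR (Tyr1068) was quantified by AlphaLISA SureFire Ultra in lysates of PC-9 cells exposed for 4 h to compound (4-fold, 10-point dilutions).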

Chain of EGFR L858R (P00533 25-1210 L858R): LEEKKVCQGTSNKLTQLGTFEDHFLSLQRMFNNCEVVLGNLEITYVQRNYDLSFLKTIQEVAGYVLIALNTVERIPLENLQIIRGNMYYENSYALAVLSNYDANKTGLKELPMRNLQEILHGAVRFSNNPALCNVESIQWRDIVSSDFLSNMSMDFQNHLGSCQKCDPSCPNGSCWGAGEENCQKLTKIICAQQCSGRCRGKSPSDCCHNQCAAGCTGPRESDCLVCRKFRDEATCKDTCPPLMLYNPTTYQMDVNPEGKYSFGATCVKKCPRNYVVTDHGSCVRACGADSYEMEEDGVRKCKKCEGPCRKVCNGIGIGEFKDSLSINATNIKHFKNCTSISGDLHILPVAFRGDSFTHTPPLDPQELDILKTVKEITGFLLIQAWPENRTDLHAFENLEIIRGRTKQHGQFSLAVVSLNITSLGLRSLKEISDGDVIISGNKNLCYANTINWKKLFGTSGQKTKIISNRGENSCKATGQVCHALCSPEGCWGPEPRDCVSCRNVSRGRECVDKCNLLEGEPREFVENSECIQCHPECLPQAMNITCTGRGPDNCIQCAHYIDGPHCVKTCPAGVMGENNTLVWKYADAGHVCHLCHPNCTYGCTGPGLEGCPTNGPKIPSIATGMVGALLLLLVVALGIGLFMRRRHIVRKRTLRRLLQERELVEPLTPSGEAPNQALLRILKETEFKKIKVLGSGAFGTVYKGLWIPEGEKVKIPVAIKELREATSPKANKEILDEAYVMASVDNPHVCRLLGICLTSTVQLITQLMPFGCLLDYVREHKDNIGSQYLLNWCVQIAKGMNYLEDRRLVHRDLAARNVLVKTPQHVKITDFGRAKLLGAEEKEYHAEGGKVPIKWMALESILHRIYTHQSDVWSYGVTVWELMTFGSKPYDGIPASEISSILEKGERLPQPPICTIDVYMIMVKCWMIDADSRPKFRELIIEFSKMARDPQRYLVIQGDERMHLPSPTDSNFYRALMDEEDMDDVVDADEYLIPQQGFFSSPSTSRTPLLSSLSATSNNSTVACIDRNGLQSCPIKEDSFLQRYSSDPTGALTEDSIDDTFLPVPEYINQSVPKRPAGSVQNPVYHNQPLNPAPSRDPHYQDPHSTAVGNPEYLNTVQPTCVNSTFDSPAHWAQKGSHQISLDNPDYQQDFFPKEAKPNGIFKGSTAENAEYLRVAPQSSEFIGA

| Structure (SMILES) | IC50 [1] [nM] | IC50 [2] [nM] | IC50 [3] [nM] |
| --- | --- | --- | --- |
| CCOc1cc2ncnc(-c3cn(C)nc3-c3ccccc3)c2cc1OC1CCN(C(=O)CC)CC1 [Example 10, 1-(4-((7-ethoxy-4-(1-methyl-3-phenyl-1H-pyrazol-4-yl)quinazolin-6-yl)oxy)piperidin-1-yl) propan-1-one] | 3.5 | 1.9 | 2.8 |
| COc1cc2ncnc(-c3cn(C)nc3-c3ccccc3)c2cc1NC(=O)N1C[C@H](C)N(C)C[C@@H]1C [Example 178, (2S,5S)—N-(7-methoxy-4-(1-methyl-3-phenyl-1H-pyrazol-4-yl)quinazolin-6-yl)-2,4,5-trimethylpiperazine-1-carboxamide] | 6.2 | 3.3 | 5.4 |
| COc1cc2ncnc(-c3cn(C)nc3-c3ccccc3)c2nc1O[C@@H](C)c1cscn1 (single isomer, unassigned) [Example 50, (S)-4-(1-((7-methoxy-4-(1-methyl-3-phenyl-1H-pyrazol-4-yl)pyrido[3,2-d]pyrimidin-6-yl)oxy)ethyl)thiazole or (R)-4-(1-((7-methoxy-4-(1-methyl-3-phenyl-1H-pyrazol-4-yl)pyrido[3,2-d]pyrimidin-6-yl)oxy)ethyl)thiazole] | 0.5 | 0.3 | 0.3 |
| CCOc1cc2ncnc(-c3cn(C)nc3-c3ccccc3)c2cc1N1CCOCC1 [Example 163, 4-(7-ethoxy-4-(1-methyl-3-phenyl-1H-pyrazol-4-yl)quinazolin-6-yl)morpholine] | 3.6 | 1.4 | 5.5 |
| COc1cc2ncnc(-c3cn(C)nc3-c3ccccc3)c2cc1OC(=O)N1[C@H](C)CN(C)C[C@H]1C [Example 89, 7-methoxy-4-(1-methyl-3-phenyl-1H-pyrazol-4-yl)quinazolin-6-yl (2R,6R)-2,4,6-trimethylpiperazine-1-carboxylate] | 5.4 | 1.9 | 5.7 |
| COc1cc2ncnc(-c3cn(C)nc3-c3ccccc3)c2cc1NC(=O)N1CCN(C)[C@@H]2C[C@@H]21 (stereo in doubt) [Example 186, N-[7-methoxy-4-(1-methyl-3-phenyl-1H-pyrazol-4-yl)quinazolin-6-yl]-5-methyl-2,5-diazabicyclo[4.1.0]heptane-2-carboxamide] | 3.2 | 2.3 | 4 |
| CCn1cc([C@@H](C)Oc2nc3c(-c4cn(C)nc4-c4ccccc4)ncnc3cc2OC)nn1 [Example 35, (R)-6-(1-(1-ethyl-1H-1,2,3-triazol-4-yl)ethoxy)-7-methoxy-4-(1-methyl-3-phenyl-1H-pyrazol-4-yl)pyrido[3,2-d]pyrimidine] | 2.3 | 1.9 | 2.7 |
| COc1cc2ncnc(-c3cn(C)nc3-c3ccccc3)c2cc1NC(=O)N1CCO[C@@H](C)[C@@H]1C [Example 177, (2S,3S)—N-(7-methoxy-4-(1-methyl-3-phenyl-1H-pyrazol-4-yl)quinazolin-6-yl)-2,3-dimethylmorpholine-4-carboxamide] | 4.3 | 2.1 | 6.1 |
| CCOc1cc2ncnc(-c3cn(C)nc3-c3ccccc3)c2cc1OC [Example 25, 7-ethoxy-6-methoxy-4-(1-methyl-3-phenyl-1H-pyrazol-4-yl)quinazoline] | 1.4 | 0.9 | 2.1 |
| COc1cc2ncnc(-c3cn(CC(F)(F)F)nc3-c3ccccc3)c2cc1OC(=O)N1CCN(C)C[C@@H]1C [Example 60, 7-methoxy-4-(3-phenyl-1-(2,2,2-trifluoroethyl)-1H-pyrazol-4-yl)quinazolin-6-yl(S)-2,4-dimethylpiperazine-1-carboxylate] | 5.1 | 3.6 | 3.6 |
| CCOc1cc2ncnc(-c3cn(C)nc3-c3ccccc3)c2cc1OC(=O)N1CCO[C@H](C)C1 [Example 73, 7-ethoxy-4-(1-methyl-3-phenyl-1H-pyrazol-4-yl)quinazolin-6-yl (R)-2-methylmorpholine-4-carboxylate] | 2.9 | 1.6 | 11.1 |

More lines, now with the values ahead:

| IC50 [1] [nM] | IC50 [2] [nM] | IC50 [3] [nM] | Structure (SMILES) |
| --- | --- | --- | --- |
| 5.6 | 2.5 | 7.8 | COc1cc2ncnc(-c3cn(C)nc3-c3ccccc3)c2cc1NC(=O)C(C)(C)N(C)C [Example 246, 2-(dimethylamino)-N-(7-methoxy-4-(1-methyl-3-phenyl-1H-pyrazol-4-yl)quinazolin-6-yl)-2-methylpropanamide] |
| 1.7 | 1 | 0.8 | COc1cc2ncnc(-c3cn(C)nc3-c3ccccc3)c2cc1NC(=O)[C@@H]1CCN(C)C[C@H]1F (racemic) [Example 339, trans-rac-(3R,4R)-3-fluoro-N-(7-methoxy-4-(1-methyl-3-phenyl-1H-pyrazol-4-yl)quinazolin-6-yl)-1-methylpiperidine-4-carboxamide trifluoroacetate] |
| 1.8 | 0.9 | 2 | COc1cc2ncnc(-c3cn(C4CC4)nc3-c3ccccc3)c2nc1NC(=O)c1cnn(C(F)(F)F)c1 [Example 365, N-(4-(1-cyclopropyl-3-phenyl-1H-pyrazol-4-yl)-7-methoxypyrido[3,2-d]pyrimidin-6-y1)-1-(trifluoromethyl)-1H-pyrazole-4-carboxamide] |
| 50 | 19.5 | 173 | [2H]C([2H])([2H])Oc1cc2ncnc(-c3cnn(C([2H])([2H])[2H])c3-c3ccccc3)c2nc1NC(=O)C1(C(F)(F)F)CC1 [Example 487, N-(7-(methoxy-d3)-4-(1-(methyl-d3)-5-phenyl-1H-pyrazol-4-yl)pyrido[3,2-d]pyrimidin-6-yl)-1-(trifluoromethyl)cyclopropane-1-carboxamide] |
| 48.7 | 13.4 | 184 | COc1cc2ncnc(-c3cn(C(F)(F)F)nc3-c3ccccc3)c2cc1NC(=O)C12CC(C1)C2 [Example 484, N-(7-methoxy-4-(3-phenyl-1-(trifluoromethyl)-1H-pyrazol-4-yl)quinazolin-6-yl)bicyclo[1.1.1]pentane-1-carboxamide] |
| 1.2 | 0.7 | 0.9 | COc1cc2ncnc(-c3cn(C4CC4)nc3-c3ccccc3)c2nc1NC(=O)[C@@]12C[C@@H]1CN(C)C2 (single isomer, unassigned) [Example 406, (1S,5S)—N-(4-(1-cyclopropyl-3-phenyl-1H-pyrazol-4-yl)-7-methoxypyrido[3,2-d]pyrimidin-6-yl)-3-methyl-3-azabicyclo[3.1.0]hexane-1-carboxamide or (1R,5R)—N-(4-(1-cyclopropyl-3-phenyl-1H-pyrazol-4-yl)-7-methoxypyrido[3,2-d]pyrimidin-6-yl)-3-methyl-3-azabicyclo[3.1.0]hexane-1-carboxamide] |
| 1.6 | 1.1 | 1.9 | COc1cc2ncnc(-c3cn(C)nc3-c3ccccc3)c2cc1NC(=O)c1cccc(F)c1Cl [Example 199, 2-chloro-3-fluoro-N-(7-methoxy-4-(1-methyl-3-phenyl-1H-pyrazol-4-yl)quinazolin-6-yl)benzamide] |
| 2.7 | 0.8 | 3.8 | COc1cc2ncnc(-c3cn(C)nc3-c3ccccc3)c2nc1NC(=O)c1cccc(F)c1 [Example 313, 3-fluoro-N-(7-methoxy-4-(1-methyl-3-phenyl-1H-pyrazol-4-yl)pyrido[3,2-d]pyrimidin-6-yl)benzamide] |
| 4.2 | 1.2 | 5 | COc1cc2ncnc(-c3cn(C)nc3-c3ccccc3F)c2nc1NC(=O)C12CC(N(C)C)(C1)C2 [Example 403, 3-(dimethylamino)-N-(4-(3-(2-fluorophenyl)-1-methyl-1H-pyrazol-4-yl)-7-methoxypyrido[3,2-d]pyrimidin-6-yl)bicyclo[1.1.1]pentane-1-carboxamide] |
| 2 | 0.6 | 1.1 | [2H]C([2H])([2H])n1cc(-c2ncnc3cc(OC)c(NC(=O)C4(C(F)(F)F)CC4)nc23)c(-c2ccccc2)n1 [Example 320, N-(7-methoxy-4-(1-(methyl-d3)-3-phenyl-1H-pyrazol-4-yl)pyrido[3,2-d]pyrimidin-6-yl)-1-(trifluoromethyl)cyclopropane-1-carboxamide] |
| 1.8 | 0.8 | 2.5 | COc1cc2ncnc(-c3cn(C)nc3-c3ccccc3)c2cc1NC(=O)c1ccccc1C [Example 197, N-(7-methoxy-4-(1-methyl-3-phenyl-1H-pyrazol-4-yl)quinazolin-6-yl)-2-methylbenzamide] |
| 3.9 | 1.5 | 4.6 | COc1cc2ncnc(-c3cn(C)nc3-c3ccccc3)c2nc1NC(=O)C12CCCN1CCC2 [Example 368, N-(7-methoxy-4-(1-methyl-3-phenyl-1H-pyrazol-4-yl)pyrido[3,2-d]pyrimidin-6-yl)tetrahydro-1H-pyrrolizine-7a(5H)-carboxamide] |
| 3.9 | 1.2 | 7.7 | COc1cc2ncnc(-c3cn(C)nc3-c3ccccc3)c2nc1NC(=O)c1cn(C(F)(F)F)nc1C [Example 428, N-(7-methoxy-4-(1-methyl-3-phenyl-1H-pyrazol-4-yl)pyrido[3,2-d]pyrimidin-6-yl)-3-methyl-1-(trifluoromethyl)-1H-pyrazole-4-carboxamide] |
